Data taken from patent US20250281629A1, “COMPOSITIONS AND METHODS FOR ANTI-PHOSPHOCHOLINE ACTIVE IMMUNOTHERAPY” (Duke University, priority 2022, published 2025).
Where no end group is shown, it is not given here.

How the values were obtained:
macrophages (F4/80+) = assay: Nanofiber uptake in i.p. lavage cells, flow cytometry: macrophages; format: in vivo, mouse; details: 4 hours after i.p. injection of TAMRA-labeled nanofibers
Experimental: (§1) Nanofiber Uptake and Evaluation. The cell types present and their propensity to uptake nanofibers in the i.p. space was tested by injecting mice i.p. with 100 μL of 2 mM TAMRA-labeled fluorescent nanofibers. 4 hours later, mice were euthanized and i.p. lavage was conducted via the injection of 2 mL of cold 1×PBS into the peritoneal cavity and massaging the abdomen for 30 seconds. The solution was then carefully extracted from the i.p. space and the cells were isolated followed by rinsing with ice cold flow buffer (2% heat-inactivated FBS in 1×PBS). The cells present were treated with mouse BD Fc Block (Clone: 2.4G2) (BD Biosciences, 553142) in flow buffer on ice for 30 min and then washed and stained with antibodies against the following markers: CD5-APC (Clone: 53-7.3) (BioLegend, 100626), F4/80-PerCP/Cy5.5 (Clone: BM8) (BioLegend, 123128), CD19-APC/Cy7 (Clone: 6D5) (BioLegend, 115530), CD11c-PE/Cy7 (Clone: N418) (BioLegend, 117318), and CD86-BV605 (Clone: GL1) (BD Biosciences, 2272591) in flow buffer for 30 min on ice. TAMRA-fluorescence as an indication of nanofiber uptake was measured on the PE channel. Cells were then washed in flow buffer and stained with DAPI. Flow cytometry was conducted on a BD FACSCanto II cytometer and the results were analyzed using FlowJo software.

[1] = tested on: mouse anti-PC IgM monoclonal antibody (Clone: BH8); assay: ELISA for measuring nanofiber epitope reactivity; format: binding; details: nanofibers coated at 0.2 mM; PC-BSA positive control
Experimental: ELISA for Measuring Nanofiber Epitope Reactivity. The reactivity of PC conjugation methods was determined via binding of a mouse anti-PC IgM monoclonal antibody (Clone: BH8) (Sigma, MABF2084) to nanofibers. Nanofibers were diluted to 0.2 mM and coated onto 96-well plates at 4° C. overnight. PC-BSA (Biosearch Technologies, PC-1011-10) was coated at 20 μg/mL in 1×PBS overnight as a positive control, and PBS was used as a negative control. The next day, the plates were washed using 1×PBS with 0.05% Tween 20 (1×PBST) and then blocked with Superblock blocking buffer solution (Thermo Fisher, 37515) three times. This was followed by the addition anti-PC IgM which was serially diluted in 1% BSA in 1×PBST by 5-fold steps beginning from 1:100 (5 μg/mL) and allowed to incubate for 2 h at room temperature. Anti-PC IgM bound to nanofibers was then detected with HRP-conjugated goat anti-mouse IgM (Southern Biotech, 1021-05) and the absorbance values at 450 nm were measured.

B1a cells (CD19+CD5+) = assay: Nanofiber uptake in i.p. lavage cells, flow cytometry: B1a cells; format: in vivo, mouse; details: 4 hours after i.p. injection
Experimental: as §1

[2] = Zeta potential of nanofibers; format: physicochemical; details: 1 mM conjugate coassembled with 1 mM Q11; 0.2 mM in 1×PBS, 25° C.
Experimental: Zeta Potential. Nanofibers were diluted to 0.2 mM in 1×PBS and zeta potential measurements were conducted at 25° C. using an Anton Paar Litesizer 500.

C57BL/6 mice = assay: Serum anti-PC antibody responses of immunized mice via ELISA (PC-BSA coated); format: in vivo, mouse; details: 10% Cys4-Q11 added to PC-Q11 or PCM-Q11 nanofibers; i.p.
Experimental: Mice and Immunizations. Female C57BL/6 mice (Envigo) age 6-10 weeks were used to initiate experiments except for the Il10^−/− colitis study where female B6.129P2-Il10^tm1Cgn/J (The Jackson Laboratory) mice age 5-7 weeks were used. While female mice were used for most experiments, age-matched male C57BL/6 mice (Envigo) were used in a one cycle acute DSS colitis model to confirm efficacy across sexes. Mice were housed at Duke University. All experimental procedures were performed on protocols (A264-18-11 and A199-21-09) approved by the Duke University Institutional Animal Care and Use Committee (IACUC). For subcutaneous immunizations, anesthetized mice were injected once behind each shoulder with 50 μL of 2 mM peptide nanofiber solution or 1×PBS. For intraperitoneal immunizations, mice were injected with 100 μL of 2 mM peptide nanofiber solution or 1×PBS. Nanofiber immunizations with adjuvant contained 10 μg CpG (ODN 1826, IAX-200-002-3001, Innaxon). For injections of only CpG, 10 μg of CpG in 100 μL 1×PBS was used. Mice were typically given three immunizations, with the specific boosting schedules stated in each figure caption, usually at weeks 0, 2, and 4, as this was determined to produce robust antibody responses in a short time frame.
Detection of Anti-PC Antibody Responses via ELISA. Anti-PC antibody responses in serum collected from the submandibular vein in mice were measured using ELISA. Briefly, plates were coated with 20 μg/mL PC-BSA (Biosearch Technologies, PC-1011-10) in 1×PBS or just 1×PBS at 4° C. overnight. The next day, the plates were washed using 1×PBST (1×PBS with 0.05% Tween 20) and then blocked three times with Superblock blocking buffer solution (Thermo Fisher, 37515). Serum diluted from 1:10^2 to 1:10^5 in 1% BSA in 1×PBST was the added to the plate and allowed to incubate for 2 h at room temperature. Anti-PC IgG was detected using HRP-conjugated Fcγ fragment-specific goat anti-mouse IgG (Jackson Immuno Research, 15-035-071). IgG subclasses and IgM anti-PC antibodies were detected using Southern Biotech HRP-conjugated goat anti-mouse antibodies (IgG1, IgG2b, IgG2c, IgG3, & IgM: 5300-05B). Area under the curve (AUC) measurements were calculated using background-subtracted absorbance values at dilutions from 1:10^2 to 1:10^5. Antibody titers were defined using an absorbance cutoff above background of 0.2 OD, where titer 2 represents an OD value greater than 0.2 at 1:10^2 dilution and so on up to titer 5 at 1:10^5 dilution.

Substance	macrophages staining positively for nanofibers (macrophages (F4/80+))	binding of anti-PC mAb to nanofibers [1]	CD86 activation marker on TAMRA+ B1a cells vs non-B1a cells (B1a cells (CD19+CD5+))	zeta potential (surface charge) of nanofibers [2]	effect of extra cysteines on anti-PC antibody responses (C57BL/6 mice)
AC-QQKFQFQFEQQ-NH2 (Ac-QQKFQFQFEQQ-NH2) [Q11]	almost all macrophages staining positively for nanofibers	not	not seen		
C5H14NO4P-SGSG-QQKFQFQFEQQ-NH2 (C5H14NO4P-SGSGQQKFQFQFEQQ-NH2) [pa-PC-Q11, phosphoramidate-linked PC-Q11]		not		positively charged	
CCCCSGSG-QQKFQFQFEQQ-NH2 (CCCCSGSGQQKFQFQFEQQ-NH2; cysteine pairing not given here) [Cys4-Q11]					did not significantly enhance or reduce the anti-PC antibody responses
